Source: patent US10351575B2, “Bicyclic urea, thiourea, guanidine and cyanoguanidine compounds useful for the treatment of pain” (Array BioPharma Inc., priority 2012, dated 2019)

Columns and labels:
Experiment in all cases: KinaseProfiler off-target kinase profiling
Format in all cases: biochemical
Conditions in all cases: 10 μM, ATP near Km
CK2alpha2 = CK2alpha2 (Homo sapiens (Human), UniProt P19784)
Method in brief: (§1)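 Each value is a two-replicate mean of kinase activity as percent of control. Compound concentration: 10 μM. ATP was adjusted to roughly the Km of the enzyme assayed.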

MRCKbeta = MRCKbeta (Homo sapiens (Human), UniProt Q9Y5S2)
Method in brief: as §1

CAMK2b = CAMK2b (Homo sapiens (Human), UniProt Q13554)
Method in brief: as §1

MYLK = MYLK (Homo sapiens (Human), UniProt Q15746)
Method in brief: as §1

SGK2 = SGK2 (Homo sapiens (Human), UniProt Q9HBY8)
Method in brief: as §1

KDR = KDR (Homo sapiens (Human), UniProt P35968)
Method in brief: as §1

EphB1 = EphB1 (Homo sapiens (Human), UniProt P54762)
Method in brief: as §1

SRPK1 = SRPK1 (Homo sapiens (Human), UniProt Q96SB4)
Method in brief: as §1

PhKgamma2 = PhKgamma2 (Homo sapiens (Human), UniProt P15735)
Method in brief: as §1

Pim-1 = Pim-1 (Homo sapiens (Human), UniProt P11309)
Method in brief: as §1

AKT3 = AKT3 (Homo sapiens (Human), UniProt Q9Y243)
Method in brief: as §1

IKKbeta = IKKbeta (Homo sapiens (Human), UniProt O14920)
Method in brief: as §1

CK1gamma2 = CK1gamma2 (Homo sapiens (Human), UniProt P78368)
Method in brief: as §1

CAMK2g = CAMK2g (Homo sapiens (Human), UniProt Q13555)
Method in brief: as §1

CDK3/cyclinE = CDK3/cyclinE (Homo sapiens (Human), UniProt Q00526)
Method in brief: as §1

PKCbetaI = PKCbetaI (Homo sapiens (Human), UniProt P05771)
Method in brief: as §1

FAK = FAK (Homo sapiens (Human), UniProt Q05397)
Method in brief: as §1

IRAK1 = IRAK1 (Homo sapiens (Human), UniProt P51617)
Method in brief: as §1

BrSK2 = BrSK2 (Homo sapiens (Human), UniProt Q8IWQ3)
Method in brief: as §1

GRK6 = GRK6 (Homo sapiens (Human), UniProt P43250)
Method in brief: as §1

CAMK4 = CAMK4 (Homo sapiens (Human), UniProt Q16566)
Method in brief: as §1

CDK5/p25 = CDK5/p25 (Homo sapiens (Human), UniProt Q00535)
Method in brief: as §1

DAPK1 = DAPK1 (Homo sapiens (Human), UniProt P53355)
Method in brief: as §1

CDK6/cyclinD3 = CDK6/cyclinD3 (Homo sapiens (Human), UniProt Q00534)
Method in brief: as §1

AMPK(A1/B1/G1) = AMPK(A1/B1/G1) (Homo sapiens (Human), UniProt Q13131)
Method in brief: as §1

Fer = Fer (Homo sapiens (Human), UniProt P16591)
Method in brief: as §1

BrSK1 = BrSK1 (Homo sapiens (Human), UniProt Q8TDC3)
Method in brief: as §1

MAPKAP-K5 = MAPKAP-K5 (Homo sapiens (Human), UniProt Q8IW41)
Method in brief: as §1

MSK2 = MSK2 (Homo sapiens (Human), UniProt O75676)
Method in brief: as §1

MLK1 = MLK1 (Homo sapiens (Human), UniProt P80192)
Method in brief: as §1

JAK2 = JAK2 (Homo sapiens (Human), UniProt O60674)
Method in brief: as §1

Fes = Fes (Homo sapiens (Human), UniProt P07332)
Method in brief: as §1

PDGFRalpha = PDGFRalpha (Homo sapiens (Human), UniProt P16234)
Method in brief: as §1

CLK2 = CLK2 (Homo sapiens (Human), UniProt P49760)
Method in brief: as §1

LOK = LOK (Homo sapiens (Human), UniProt O94804)
Method in brief: as §1

ErbB4 = ErbB4 (Homo sapiens (Human), UniProt Q15303)
Method in brief: as §1

IR Activated = IR Activated (Homo sapiens (Human), UniProt P06213)
Method in brief: as §1

PAK5 = PAK5 (Homo sapiens (Human), UniProt Q9P286)
Method in brief: as §1

LIMK1 = LIMK1 (Homo sapiens (Human), UniProt P53667)
Method in brief: as §1

Chain of SGK2 (Q9HBY8 whole entry): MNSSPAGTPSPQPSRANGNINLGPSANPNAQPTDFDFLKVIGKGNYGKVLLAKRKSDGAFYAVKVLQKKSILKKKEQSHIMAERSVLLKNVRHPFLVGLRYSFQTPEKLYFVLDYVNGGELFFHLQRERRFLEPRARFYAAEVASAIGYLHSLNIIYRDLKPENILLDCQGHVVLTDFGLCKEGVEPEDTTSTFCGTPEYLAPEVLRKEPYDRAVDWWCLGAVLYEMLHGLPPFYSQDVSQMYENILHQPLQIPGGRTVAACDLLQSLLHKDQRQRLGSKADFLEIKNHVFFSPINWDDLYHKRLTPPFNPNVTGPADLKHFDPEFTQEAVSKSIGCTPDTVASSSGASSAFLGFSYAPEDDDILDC
Chain of DAPK1 (P53355 whole entry): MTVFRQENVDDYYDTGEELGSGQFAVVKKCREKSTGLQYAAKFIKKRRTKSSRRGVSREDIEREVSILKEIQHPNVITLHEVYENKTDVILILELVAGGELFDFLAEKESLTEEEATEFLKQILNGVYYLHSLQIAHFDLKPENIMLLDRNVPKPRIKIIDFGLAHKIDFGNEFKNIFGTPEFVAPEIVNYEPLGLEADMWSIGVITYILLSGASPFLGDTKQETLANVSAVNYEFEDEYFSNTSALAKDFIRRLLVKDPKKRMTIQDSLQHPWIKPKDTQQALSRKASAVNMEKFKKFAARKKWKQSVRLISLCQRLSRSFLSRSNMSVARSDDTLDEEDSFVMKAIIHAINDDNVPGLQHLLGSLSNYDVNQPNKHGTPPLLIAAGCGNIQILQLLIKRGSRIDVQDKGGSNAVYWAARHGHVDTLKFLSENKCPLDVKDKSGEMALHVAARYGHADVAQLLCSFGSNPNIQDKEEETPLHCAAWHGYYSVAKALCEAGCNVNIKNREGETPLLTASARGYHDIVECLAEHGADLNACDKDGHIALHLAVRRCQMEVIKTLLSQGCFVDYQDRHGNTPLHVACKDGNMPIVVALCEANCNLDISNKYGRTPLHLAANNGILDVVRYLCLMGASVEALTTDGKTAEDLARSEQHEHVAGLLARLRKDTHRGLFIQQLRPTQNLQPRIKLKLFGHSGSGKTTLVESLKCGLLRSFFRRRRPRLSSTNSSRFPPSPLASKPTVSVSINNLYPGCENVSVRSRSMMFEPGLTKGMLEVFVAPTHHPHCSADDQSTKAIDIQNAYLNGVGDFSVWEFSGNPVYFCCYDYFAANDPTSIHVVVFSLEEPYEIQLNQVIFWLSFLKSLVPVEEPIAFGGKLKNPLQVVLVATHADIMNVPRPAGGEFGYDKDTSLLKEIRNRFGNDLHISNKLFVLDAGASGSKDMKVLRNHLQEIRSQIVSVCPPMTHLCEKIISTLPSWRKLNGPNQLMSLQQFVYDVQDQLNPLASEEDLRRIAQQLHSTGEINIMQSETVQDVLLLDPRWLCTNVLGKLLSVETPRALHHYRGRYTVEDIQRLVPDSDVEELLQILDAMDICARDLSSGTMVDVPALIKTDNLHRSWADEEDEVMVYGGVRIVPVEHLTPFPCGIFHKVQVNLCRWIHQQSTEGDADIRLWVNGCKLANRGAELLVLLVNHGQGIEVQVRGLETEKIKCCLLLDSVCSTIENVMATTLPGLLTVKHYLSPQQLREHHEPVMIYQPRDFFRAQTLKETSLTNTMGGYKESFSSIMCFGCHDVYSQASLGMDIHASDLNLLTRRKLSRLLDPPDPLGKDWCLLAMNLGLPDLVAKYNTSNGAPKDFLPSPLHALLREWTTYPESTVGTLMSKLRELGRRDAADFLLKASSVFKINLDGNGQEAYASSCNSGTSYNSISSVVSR
Chain of CDK6/cyclinD3 (Q00534 whole entry): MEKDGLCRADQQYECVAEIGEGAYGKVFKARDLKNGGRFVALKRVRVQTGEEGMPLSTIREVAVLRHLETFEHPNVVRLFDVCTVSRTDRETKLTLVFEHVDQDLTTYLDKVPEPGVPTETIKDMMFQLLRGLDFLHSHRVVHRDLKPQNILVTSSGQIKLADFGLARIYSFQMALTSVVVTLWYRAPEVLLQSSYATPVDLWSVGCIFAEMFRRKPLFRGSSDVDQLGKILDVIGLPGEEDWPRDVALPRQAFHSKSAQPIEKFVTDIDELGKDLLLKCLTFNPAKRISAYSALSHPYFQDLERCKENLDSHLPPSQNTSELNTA
Chain of CDK6/cyclinD3 (P30281 whole entry partner): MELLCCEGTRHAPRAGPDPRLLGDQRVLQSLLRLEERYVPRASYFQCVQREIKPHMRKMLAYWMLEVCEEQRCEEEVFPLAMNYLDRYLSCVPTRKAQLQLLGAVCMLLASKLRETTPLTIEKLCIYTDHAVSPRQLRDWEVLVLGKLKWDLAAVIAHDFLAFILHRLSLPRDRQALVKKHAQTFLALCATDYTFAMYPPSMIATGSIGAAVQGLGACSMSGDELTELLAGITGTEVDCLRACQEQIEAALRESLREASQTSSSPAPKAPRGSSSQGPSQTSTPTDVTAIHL
Chain of PDGFRalpha (P16234 24-1089): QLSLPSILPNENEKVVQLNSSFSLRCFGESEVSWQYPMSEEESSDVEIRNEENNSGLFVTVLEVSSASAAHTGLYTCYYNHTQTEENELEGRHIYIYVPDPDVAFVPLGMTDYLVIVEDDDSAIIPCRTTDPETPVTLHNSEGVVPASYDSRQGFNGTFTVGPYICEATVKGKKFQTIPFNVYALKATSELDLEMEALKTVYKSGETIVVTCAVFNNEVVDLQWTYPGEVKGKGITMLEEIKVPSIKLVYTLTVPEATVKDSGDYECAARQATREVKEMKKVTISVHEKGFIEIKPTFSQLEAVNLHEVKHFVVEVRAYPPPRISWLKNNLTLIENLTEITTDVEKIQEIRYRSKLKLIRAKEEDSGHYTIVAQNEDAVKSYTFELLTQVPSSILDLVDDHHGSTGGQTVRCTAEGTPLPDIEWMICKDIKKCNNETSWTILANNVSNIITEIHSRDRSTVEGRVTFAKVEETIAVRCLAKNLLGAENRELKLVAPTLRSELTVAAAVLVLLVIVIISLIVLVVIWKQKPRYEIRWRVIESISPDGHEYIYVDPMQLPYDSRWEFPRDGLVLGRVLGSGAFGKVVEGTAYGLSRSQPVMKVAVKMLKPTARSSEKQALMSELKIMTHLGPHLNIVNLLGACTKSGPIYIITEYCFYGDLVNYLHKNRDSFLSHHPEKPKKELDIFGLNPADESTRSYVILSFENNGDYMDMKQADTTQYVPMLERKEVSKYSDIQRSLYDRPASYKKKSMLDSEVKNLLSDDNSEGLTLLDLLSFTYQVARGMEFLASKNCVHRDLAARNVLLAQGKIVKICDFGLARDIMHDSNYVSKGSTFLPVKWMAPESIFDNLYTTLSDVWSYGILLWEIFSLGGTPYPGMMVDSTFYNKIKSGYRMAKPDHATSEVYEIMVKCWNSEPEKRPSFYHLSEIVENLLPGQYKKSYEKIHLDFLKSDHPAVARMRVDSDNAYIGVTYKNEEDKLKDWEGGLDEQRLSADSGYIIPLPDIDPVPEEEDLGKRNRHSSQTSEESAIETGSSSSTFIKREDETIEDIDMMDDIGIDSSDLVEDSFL
Chain of BrSK1 (Q8TDC3 whole entry): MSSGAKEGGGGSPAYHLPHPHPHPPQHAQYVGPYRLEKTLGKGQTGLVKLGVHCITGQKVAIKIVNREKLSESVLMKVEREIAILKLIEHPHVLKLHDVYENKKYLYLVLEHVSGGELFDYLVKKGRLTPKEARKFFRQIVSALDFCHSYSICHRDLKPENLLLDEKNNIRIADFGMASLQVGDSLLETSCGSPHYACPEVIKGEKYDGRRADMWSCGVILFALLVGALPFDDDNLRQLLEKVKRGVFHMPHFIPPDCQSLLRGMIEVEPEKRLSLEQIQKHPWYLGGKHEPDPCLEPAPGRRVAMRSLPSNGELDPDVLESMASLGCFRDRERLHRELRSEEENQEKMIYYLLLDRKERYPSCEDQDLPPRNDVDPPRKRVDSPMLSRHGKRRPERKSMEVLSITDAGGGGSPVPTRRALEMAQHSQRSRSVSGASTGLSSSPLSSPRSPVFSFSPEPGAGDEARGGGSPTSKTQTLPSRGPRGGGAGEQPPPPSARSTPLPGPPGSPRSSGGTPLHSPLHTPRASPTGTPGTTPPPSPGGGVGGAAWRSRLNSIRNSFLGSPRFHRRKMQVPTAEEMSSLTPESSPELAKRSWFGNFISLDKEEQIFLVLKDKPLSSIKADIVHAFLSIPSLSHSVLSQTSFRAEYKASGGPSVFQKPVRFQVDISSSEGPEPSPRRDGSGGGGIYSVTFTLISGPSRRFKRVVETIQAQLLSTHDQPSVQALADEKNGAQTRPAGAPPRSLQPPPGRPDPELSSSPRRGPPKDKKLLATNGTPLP
Chain of SRPK1 (Q96SB4 whole entry): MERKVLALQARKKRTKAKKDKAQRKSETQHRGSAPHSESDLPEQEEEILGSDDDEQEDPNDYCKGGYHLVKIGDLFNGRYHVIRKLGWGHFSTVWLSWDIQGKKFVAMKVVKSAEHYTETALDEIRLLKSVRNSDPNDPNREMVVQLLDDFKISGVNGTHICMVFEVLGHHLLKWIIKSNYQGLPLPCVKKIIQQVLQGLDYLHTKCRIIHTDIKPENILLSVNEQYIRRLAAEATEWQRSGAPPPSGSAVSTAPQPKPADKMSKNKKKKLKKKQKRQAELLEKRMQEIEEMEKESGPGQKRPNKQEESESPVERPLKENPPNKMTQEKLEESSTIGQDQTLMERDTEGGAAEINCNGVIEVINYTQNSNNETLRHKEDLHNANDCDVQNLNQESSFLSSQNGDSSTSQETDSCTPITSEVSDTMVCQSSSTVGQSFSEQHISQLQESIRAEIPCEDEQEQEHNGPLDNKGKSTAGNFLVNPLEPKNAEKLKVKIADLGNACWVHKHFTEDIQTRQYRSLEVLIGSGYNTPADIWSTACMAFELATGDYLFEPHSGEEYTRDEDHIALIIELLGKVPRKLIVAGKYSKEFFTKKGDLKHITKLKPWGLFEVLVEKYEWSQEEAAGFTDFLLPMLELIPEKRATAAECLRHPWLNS

Row | SMILES | Avg. POC (CK2alpha2) | Avg. POC (MRCKbeta) | Avg. POC (CAMK2b) | Avg. POC (MYLK) | Avg. POC (SGK2) | Avg. POC (KDR) | Avg. POC (EphB1) | Avg. POC (SRPK1) | Avg. POC (PhKgamma2) | Avg. POC (Pim-1) | Avg. POC (AKT3) | Avg. POC (IKKbeta) | Avg. POC (CK1gamma2) | Avg. POC (CAMK2g) | Avg. POC (CDK3/cyclinE) | Avg. POC (PKCbetaI) | Avg. POC (FAK) | Avg. POC (IRAK1) | Avg. POC (BrSK2) | Avg. POC (GRK6) | further results
1 | Cc1c(-c2ccc(=O)n(C)c2)nn(-c2ccccc2)c1NC(=O)NC1CN(CC(F)(F)F)Cc2ccccc21 (stereo not drawn) [Example 26, 1-(4-methyl-3-(1-methyl-6-oxo-1,6-dihydropyridin-3-yl)-1-phenyl-1H-pyrazol-5-yl)-3-(2-(2,2,2-trifluoroethyl)-1,2,3,4-tetrahydroisoquinolin-4-yl)urea] | 114 POC | 110 POC | 107 POC | 101 POC | 123.5 POC | 144.5 POC | 116.5 POC | 102.5 POC | 108.5 POC | 97.5 POC | 96 POC | 103.5 POC | 112.5 POC | 101 POC | 101.5 POC | 89 POC | 105 POC | 110.5 POC | 118 POC | 100.5 POC | Avg. POC (CAMK4): 121 POC; Avg. POC (CDK5/p25): 109 POC; Avg. POC (DAPK1): 135 POC; Avg. POC (CDK6/cyclinD3): 104.5 POC; Avg. POC (AMPK(A1/B1/G1)): 122.5 POC; Avg. POC (Fer): 98 POC; Avg. POC (BrSK1): 105.5 POC; Avg. POC (MAPKAP-K5): 101.5 POC; Avg. POC (MSK2): 107.5 POC; Avg. POC (MLK1): 105.5 POC; Avg. POC (JAK2): 134.5 POC; Avg. POC (Fes): 100.5 POC; Avg. POC (PDGFRalpha): 104.5 POC; Avg. POC (CLK2): 108.5 POC; Avg. POC (LOK): 109 POC; Avg. POC (ErbB4): 115.5 POC; Avg. POC (IR Activated): 106 POC; Avg. POC (PAK5): 121.5 POC; Avg. POC (LIMK1): 102 POC
2 | COCc1ccc2c(c1)C(NC(=O)Nc1c(C)c(-c3cnn(C)c3)nn1-c1ccccc1)COC2 (stereo not drawn) [Example 32, 1-(1′,4-dimethyl-1-phenyl-1H,1′H-[3,4′-bipyrazol]-5-yl)-3-(6-(methoxymethyl)isochroman-4-yl)urea] | 104 POC | 103 POC | 102.5 POC | 97.5 POC | 123.5 POC | 129 POC | 145.5 POC | 99.5 POC | 102.5 POC | 109 POC | 77.5 POC | 105.5 POC | 101.5 POC | 105 POC | 102.5 POC | 80 POC | 116.5 POC | 113.5 POC | 128.5 POC | 101 POC | Avg. POC (CAMK4): 102 POC; Avg. POC (CDK5/p25): 106 POC; Avg. POC (DAPK1): 131 POC; Avg. POC (CDK6/cyclinD3): 108 POC; Avg. POC (AMPK(A1/B1/G1)): 138.5 POC; Avg. POC (Fer): 85 POC; Avg. POC (BrSK1): 114.5 POC; Avg. POC (MAPKAP-K5): 108 POC; Avg. POC (MSK2): 99.5 POC; Avg. POC (MLK1): 104.5 POC; Avg. POC (JAK2): 122.5 POC; Avg. POC (Fes): 112.5 POC; Avg. POC (PDGFRalpha): 112.5 POC; Avg. POC (CLK2): 105.5 POC; Avg. POC (LOK): 103.5 POC; Avg. POC (ErbB4): 108.5 POC; Avg. POC (IR Activated): 111.5 POC; Avg. POC (PAK5): 111 POC; Avg. POC (LIMK1): 95 POC
